Assay results published in patent publication US9468627B2, “Slow-release formulations of 5-hydroxytryptophan as an adjunct to pro-serotonergic therapies” (Duke University, priority 2010, dated 2016).
Entries after “also recorded” stand apart in the source; their conditions may differ.

Assays:
[1] = Side-effect and toxicity observation (body weight, drinking, diarrhea, 5-HT syndrome-like behaviors)
Method: Tph2 R439H mice (˜25 g) were treated for >3 wks with a saturating dose of FLX (155 mg/L drinking water, ˜20 mg/kg/day). Thereafter Alzet 2001 minipumps (1 μl delivered/hr) containing a 5-HTP solution (100 mg/ml, ˜100 mg/kg/day) or only vehicle was implanted using isoflurane anesthesia, allowing for swift awakening, and the mice monitored for signs of 5-HT syndrome hourly for 8 hrs and at 24 hrs. Splaying (0=absent, 1=present, 2=severe), head twitch (#/min) and signs of hyperventilation (0=absent, 1=present, 2=severe) was scored. Body weights—a general index of toxicity—were followed for 2 days prior to and 5 days after pump implantation.
METHODS: Mice on >2 w FLX (155 mg/L water, ˜20 mg/kg/d) were implanted with Alzet 2001 minipumps with vehicle (50% DMSO) or 100 mg/ml 5-HTP yielding a hourly (daily) dose of ˜4.2(100 mg)/kg for a ˜25 g mouse. Side-effect parameters were assessed between 30 min and 8 h following pump implantation under brief isoflurane anesthesia (day 1) and then daily (day 2-4). […] Diarrhea: Mice where placed individually in a cage with filter paper and the diarrhea level scored, 0-3. Tremor and splaying: Scored in home cage from 5 min videos. Temperature: Recorded by digital rectal temperature probe in lightly restrained mice. […] Statistics: Genotypes were analyses separately, with 2way RM-ANOVA or t-test as appropriate, and in the former case followed by Bonferroni post-hoc test.
Side-effects were assessed after the AM dose, day 1-4. Diarrhea: Mice were placed individually in a cage with filter paper and the diarrhea level scored, 0-3, 0-15 min after injection. Tremor, splaying and head-twitch: Scored in home cage from 5 min videos, 25-30 min after injection. Temperature: Recorded by digital rectal temperature probe in lightly restrained mice 30 min after injection. […] Statistics: Genotypes were analyzed separately, with 2way RM-ANOVA or t-test where appropriate, and in the former case followed by Bonferroni post-hoc test.
METHODS: 5-HTP (2 mg/L) was dissolved in (1 mg/L) saccharin-H2O, administered in blackened bottles and changed twice weekly. […] Body weights and drinking per cage was followed throughout and 5-HTP consumed estimated here from.

[2] = test system: extracellular serotonin (5-HTExt); assay: 5-HT microdialysis (5-HTExt); type: in vivo, mice
Method: Mice were anesthetized by ketamine/xylazine (100 and 10 mg kg^−1, respectively, in saline, i.p) and a guide cannula (CMA7, CMA Microdialysis, Chelmsford, Mass., USA) was stereotactically implanted into the frontal cortex (AP: 2.3 mm, ML: 0.3 mm, DV: 0.7 mm), hippocampus (AP: −3.3 mm, ML: 3.0 mm, DV: 1.5 mm) or lateral ventricle (AP: 0.3 mm; ML: 0.9 mm; DV: 2.0 mm) according to the atlas by Franklin and Paxinos (see, e.g., Franklin, K. and Paxinos, G. The Mouse Brain in Stereotaxic Coordinates. Academic Press: San Diego, 1997) and fixed in place with two anchor screws (CMA) and carboxylate dental cement (CMA). Operated mice were singly housed, treated with antibiotics (1.2 mg sulfamethoxazole ml^−1 and 0.24 mg trimethoprim ml^−1) in the drinking water and allowed to recover 48-96 h post-surgery.
The microdialysis probe was inserted into the guide cannula approximately 16 h before the start of sample collection to allow for the stabilization of 5-HTExt levels. […] Dialysates were analyzed off-line by high-performance liquid chromatography-electrochemical detection (HPLC-EC) for 5-HT, 5-HIAA, 3,4-dihydroxyphenylacetic acid and homovanillic acid, or by the SymDAQ HPLC-tandem-mass spectrometry technology for simultaneous determination of monoamines and amino acids.
METHODS: 5-HT Microdialysis 5-HTP SR. […] 5-HTExt in dialysates was determined by HPLC-EC. […]

[3] = immediate-release oral 5-HTP; cited from earlier work
[4] = Shindo et al. 1977; cited from earlier work
[5] = HPLC pilot stability of 5-HTP in water; type: physicochemical; settings: H2O at RT, HPLC pilot experiments
[6] = cited from earlier work

CNCCC(Oc1ccc(C(F)(F)F)cc1)c1ccccc1 (stereo not shown) [FLX, fluoxetine]
effect of FLX on 5-HTP-induced diarrhea (peri-rectal fecal smearing) ([1]; FLX ≈18 mg/kg/day, 5-HTP bolus 80 mg/kg i.p., not rigorously tested): seems to decrease diarrhea induced by 5-HTP; also recorded: appeared to lessen 5-HTP-induced diarrhea | 5-HTExt response to chronic FLX ([2]; wild-type mice, FLX ≈18 mg/kg/day): robust increase

CCCN(CCC)C1CCc2cccc(O)c2C1 (stereo not shown) [8-OH-DPAT]
decrease of 5-HTExt ([2]; 8-OH-DPAT 1 mg/kg i.p.): approximately 50%

N[C@@H](Cc1c[nH]c2ccc(O)cc12)C(=O)O [5-HTP, 5-hydroxytryptophan]
T1/2 [3]: 2 to 3 h | Tmax [3]: 1 to 2 h | first-pass metabolism in the intestine [4]: ~50% | drinking ([1]; 5-HTP 2 mg/ml and 4 mg/ml in drinking water): Decreased drinking | body weight ([1]; 5-HTP 4 mg/ml in drinking water): Body weight decrease | 5-HT syndrome-like behavior ([1]; acute 5-HTP bolus 80 mg/kg i.p., add-on to existing FLX ≈18 mg/kg/day): resulted in 5-HT syndrome-like behavior; also recorded: causes 5-HT syndrome; also recorded: Serotonin syndrome-like behavior was observed | diarrhea, malaise, gastrointestinal side effects ([1]; bolus injection 5-HTP 120 mg/kg i.p.): caused gastrointestinal side effects; also recorded: caused diarrhea and obvious malaise | diarrhea, malaise, gastrointestinal side effects ([1]; continuous 5-HTP in drinking water 4 mg/ml): No diarrhea and no obvious malaise; also recorded: did not result in gastrointestinal side effects | drinking ([1]; higher 5-HTP concentrations in drinking water, in pilots): inhibited drinking | toxicity (weights, head twitches, diarrhea) ([1]; oral 5-HTP ≈200 mg/kg/day, no carbidopa, add-on to existing fluoxetine ≈18 mg/kg/day): No indication of toxicity; also recorded: not toxic and does not result in side effects | stability in H2O [5]: stable for weeks | antidepressant effect (HAMD) at endpoint ([6]; Alino et al.: 30 inpatients, nialamid 300 mg + 5-HTP 300 mg, two weeks, double-blind): significantly better than nialamide alone | antidepressant effect (HAMD) versus clomipramine + placebo ([6]; Nardini et al.: 26 inpatients, clomipramine 50 mg + 5-HTP 300 mg, four weeks, double-blind): 5-HTP enhanced clomipramines effect | patients going into remission ([6]; van Hiele: 99 chronic treatment resistant out-patients, mostly on TCAs, add-on 5-HTP ~200 mg + carbidopa, open label): Forty-three | side effects ([6]; van Hiele: add-on 5-HTP ~200 mg + carbidopa, severity greatly decreased with enteric coated capsules): nausea, vomiting and diarrhea | patients improved ([6]; van Praag: 7 chronic treatment resistant out-patients, clomipramine 50 mg + 5-HTP ~2-400 mg + PDI MK 486): Four
